No end group written: not given here.
Key:
[1] = system: LLC tumors; experiment: In vivo panning of T7 phage peptide library: phage recovered from irradiated LLC tumors; parameters: species or system mice
Description: (§1) GL261 murine glioma cells and Lewis lung carcinoma (LLC) cells were implanted into the hind limb of C57BL/6 mice (see Hallahan et al., 1995b; Hallahan et al., 1998; Hallahan & Virudachalam, 1999).
(§2) For in vivo panning, tumors were irradiated with 3 Gy and approximately 10^10 phage (prepared as described in Example 1) were administered by tail vein injection into each of the tumor bearing mice at 4 hours following irradiation. Tumors were recovered at one hour following injection and amplified in BL21 bacteria. Amplified phage were pooled and re-administered to a tumor-bearing mouse following tumor irradiation. The phage pool was sequentially administered to a total of 6 animals. As a control, wild type phage lacking synthetic peptide inserts were identically administered to a second experimental group of animals.
(§3) To determine the titer of phage binding in a tumor or in normal tissue, recovered phage were amplified in BL21 bacteria. Bacteria were plated and the number of plaques present was counted. To determine the total phage output per organ, the number of plaque forming units (PFU) on each plate was divided by the volume of phage plated and the weight of each organ. Normal variation was observed as a 2-fold difference in PFU. In the present Example, background binding within tumor blood vessels was approximately 10^4 phage. Phage that bound to the vasculature within irradiated tumors show enrichment in the tumor relative to other organs and enrichment in the irradiated tumor relative to the control phage without DNA insert.
(§4) Following six rounds of in vivo panning, fifty recombinant phage peptides that bound within irradiated tumors were randomly selected for further analysis. The nucleic acid sequence encoding recombinant phage was amplified by PCR using primers set forth as SEQ ID NOs: 20-21 (available from Novagen Brand, a unit of EMD Biosciences, Inc., Madison, Wis.). An individual phage suspension was used as template. Amplified peptides were sequenced using an ABI PRISM® 377 sequencer (Applied Biosystems of Foster City, Calif., United States of America).

[2] = system: B16F0 melanoma, lung carcinoma and glioma tumor models; experiment: Binding of phage-encoded peptides in additional tumor models; type: in vivo; conditions: phage encoding the peptide
Description: The binding properties of phage encoding HVGGSSV (SEQ ID NO: 1), […] (SEQ ID NO: 2), […] (SEQ ID NO: 3), and SVGSRV (SEQ ID NO: 4) were additionally characterized in a B16F0 melanoma model.

[3] = system: GL261 tumors; experiment: In vivo panning of T7 phage peptide library: phage recovered from irradiated GL261 tumors; parameters: species or system mice; conditions: Experiment A, 3 Gy; for Phage Recovered from GL261 tumors: number of sequenced phage after six rounds; for Phage Recovered from GL261 tumors (Frequency): six rounds
Description: as §1, §2, §3, §4

[4] = system: LLC and GL261 tumors; experiment: Conserved motifs within phage peptides recovered by in vivo panning from both tumor models; parameters: species or system mice; conditions: for Frequency of Recovery of conserved sequence: share of phage peptides recovered from irradiated tumors that contain the sequence
Description: as §2, §4
The amino acid sequences of all phage that were recovered from both tumors were studied in order to identify homologous sequences (Table 2). The most commonly recovered phage peptide had amino acid sequence HVGGSSV (SEQ ID NO: 1), and the second most common sequence was […] (SEQ ID NO: 2). The probability of recovering these peptide sequences from both tumor subtypes is 625/10^14 for each of the peptide sequences. The peptide sequence GSSV (SEQ ID NO: 9) was present in 58% of the phage recovered from tumors. Homology between peptides recovered from LLC and GL261 included 100% homology in […] (SEQ ID NO: 2) and 70% homology in RGSGSRV (SEQ ID NO.: 12). Of interest is a 6 amino acid homology spanning over 8 amino acids that include amino acids SXRGXGS (SEQ ID NO: 13), which was recovered from 28% of all phage in 2 tumor models (p<0.0001). The probability of having six identical amino acids by chance is 6^−24.

[5] = system: tumor vascular endothelium; conditions: Geng et al., 2001; Lu et al., 2004; cited from earlier work
[6] = system: responding tumor blood vessels; experiment: Biotinylated peptide binding in tumor blood vessels, FITC-avidin fluorescent microscopy; type: in vivo, mice
Description: The amino acid sequence RGXGSXV (SEQ ID NO: 18) was found in 41% of phage recovered from treated LLC tumors. To determine the pattern of RGDGSSV (SEQ ID NO: 10) peptide binding within responding tumor blood vessels, biotinylated peptide was administered by tail vein injection. Tumors were implanted into both hind limbs of mice. The right tumor was irradiated according to Example 2, and the left served as an untreated internal negative control. Biotinylated peptide was administered by tail vein injection immediately prior to tumor irradiation.

[7] = biological target: T1, GP-IIb/IIIa receptors on activated platelets (Homo sapiens, UniProt P05106+P08514); experiment: Clinical gamma camera/SPECT imaging of 99mTc-labeled bibapcitide in irradiated tumors; type: in vivo, patients
T1 construct: from tissue
T1 sequence (P08514 32-887 limits assumed): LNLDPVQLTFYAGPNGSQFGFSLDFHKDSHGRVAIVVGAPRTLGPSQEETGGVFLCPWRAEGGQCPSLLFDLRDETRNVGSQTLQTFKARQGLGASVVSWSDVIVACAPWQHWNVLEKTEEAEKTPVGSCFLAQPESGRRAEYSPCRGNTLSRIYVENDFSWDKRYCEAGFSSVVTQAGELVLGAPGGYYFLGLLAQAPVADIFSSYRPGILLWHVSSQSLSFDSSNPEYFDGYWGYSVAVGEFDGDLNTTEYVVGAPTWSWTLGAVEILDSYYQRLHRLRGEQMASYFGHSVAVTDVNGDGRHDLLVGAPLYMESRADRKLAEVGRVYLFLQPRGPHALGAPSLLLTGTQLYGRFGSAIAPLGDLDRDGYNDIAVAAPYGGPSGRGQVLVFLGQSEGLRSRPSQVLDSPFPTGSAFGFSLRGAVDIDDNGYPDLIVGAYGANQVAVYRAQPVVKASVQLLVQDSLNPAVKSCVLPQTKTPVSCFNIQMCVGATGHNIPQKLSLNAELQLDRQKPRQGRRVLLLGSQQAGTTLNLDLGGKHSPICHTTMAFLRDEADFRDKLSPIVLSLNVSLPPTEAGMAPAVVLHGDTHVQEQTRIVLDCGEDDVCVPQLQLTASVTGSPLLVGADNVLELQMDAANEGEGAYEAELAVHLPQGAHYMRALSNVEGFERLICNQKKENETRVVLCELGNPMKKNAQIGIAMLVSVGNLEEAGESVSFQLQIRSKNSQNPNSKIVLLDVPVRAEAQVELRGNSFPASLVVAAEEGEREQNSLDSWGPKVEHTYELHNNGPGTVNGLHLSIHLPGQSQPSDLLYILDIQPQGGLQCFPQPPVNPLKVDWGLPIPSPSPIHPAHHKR
T1 sequence (P08514 891-1039 partner limits assumed): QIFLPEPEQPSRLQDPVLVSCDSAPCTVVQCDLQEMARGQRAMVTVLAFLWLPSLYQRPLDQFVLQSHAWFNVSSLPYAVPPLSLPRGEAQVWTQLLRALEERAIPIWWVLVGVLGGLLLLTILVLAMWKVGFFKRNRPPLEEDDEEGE
T1 sequence (P05106 27-788): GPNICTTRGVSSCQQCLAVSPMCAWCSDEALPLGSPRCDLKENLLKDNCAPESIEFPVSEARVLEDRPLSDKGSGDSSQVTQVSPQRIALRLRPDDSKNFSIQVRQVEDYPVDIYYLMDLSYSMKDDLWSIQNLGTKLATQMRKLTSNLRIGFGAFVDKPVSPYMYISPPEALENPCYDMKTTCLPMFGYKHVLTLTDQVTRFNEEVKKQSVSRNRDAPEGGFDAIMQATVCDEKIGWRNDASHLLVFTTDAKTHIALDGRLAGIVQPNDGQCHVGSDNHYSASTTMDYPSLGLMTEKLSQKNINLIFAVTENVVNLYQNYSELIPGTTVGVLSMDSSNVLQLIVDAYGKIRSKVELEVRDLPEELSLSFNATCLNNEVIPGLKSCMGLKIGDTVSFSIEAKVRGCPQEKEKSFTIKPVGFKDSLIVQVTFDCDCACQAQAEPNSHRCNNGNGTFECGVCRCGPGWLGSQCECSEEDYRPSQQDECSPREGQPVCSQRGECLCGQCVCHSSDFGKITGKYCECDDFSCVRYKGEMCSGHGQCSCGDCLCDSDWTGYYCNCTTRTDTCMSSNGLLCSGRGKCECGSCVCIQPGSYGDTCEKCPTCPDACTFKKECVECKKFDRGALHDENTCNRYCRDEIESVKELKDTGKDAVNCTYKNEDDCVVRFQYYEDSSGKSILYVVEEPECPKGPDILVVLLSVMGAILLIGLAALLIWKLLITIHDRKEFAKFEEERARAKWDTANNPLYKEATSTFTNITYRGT
Description: Ligand Preparation and Administration. Bibapcitide (ACUTECT™, available from Diatide, Inc. of Londonderry, N.H., United States of America) is a synthetic peptide that binds to GP-IIb/IIIa receptors on activated platelets (Hawiger et al., 1989; Hawiger & Timmons, 1992). Bibapcitide was labeled with ^99mTc in accordance with a protocol provided by Diatide Inc.
Reconstituted ^99mTc-labeled bibapcitide was administered to patients at a dose of 100 μg of bibapcitide radiolabeled with 10 mCi of ^99mTc. […] Patients underwent gamma camera imaging prior to irradiation and 24 hours following irradiation.
Following planar image acquisition, those patients showing uptake in irradiated tumors underwent tomographic imaging using SPECT and repeat imaging at 24 hours. Patients showing no uptake on planer images during this 24-hour time frame had no further imaging.
Patients were treated with X-irradiation ranging from 4 to 18 MV photon using external beam linear accelerator at Vanderbilt University. Appropriate blocks, wedges, and bolus to deliver adequate dose to the planned target volume was utilized. The site of irradiation, treatment intent, and normal tissue considerations determined the radiation dosage and volume. When stereotactic radiosurgery was used, the dose was prescribed to the tumor periphery.
Image Analysis. Image acquisition consisted of both planar and single photon emission computed tomography (SPECT) studies. Planar studies were performed on a dual-head gamma camera (Millennium VG-Variable Geometry model available from General Electric Medical Systems of Milwaukee, Wis., United States of America) equipped with low energy high-resolution (LEUR) collimators. This type of collimator represents a compromise between sensitivity (photon counting efficiency) and image resolution. Planar nuclear medicine images were acquired with a 256×256 acquisition matrix (pixel size approximately 0.178 cm/pixel) for 10 minutes. In order to maximize collimator-gamma camera system sensitivity the source-to-detector surface distance was minimized to the extent that patient geometry allows. The spatial distribution of […] within the planar image was measured using region-of-interest (ROI) analysis. Two different size ROIs (5×5 pixel, and 15×15 pixel) was used in both the tumor and surrounding organs and tissues in the patient. The rationale for using ROIs with different dimensions is to be able to quantify image counts while at the same time isolating any possible influence of ROI size on the results. Tumor-to-background ratios were computed as the ratio of average counts in the tumor region divided by average counts in surrounding organs and tissues, each corrected for background. Background counts was determined based on ROI analysis of a separate planar acquisition performed in the absence of a radioactive source.
Three-dimensional nuclear medicine SPECT examinations were performed using the same dual-head gamma camera system. Each SPECT study comprised a 360 scan acquired with a step-and-shoot approach utilizing the following acquisition parameters: three increments between views, a 256×256×64 acquisition matrix, LEUR collimation and 60 seconds per view. […] SPECT tumor-to-background ratios were computed using quantitative ROI techniques identical to the planar studies. […]

[8] = Experiment A, number of sequenced phage after six rounds, 3 Gy
[9] = Experiment B, number of sequenced phage

For “RGXGSXV [conserved motif in phage recovered from treated LLC tumors]”, which “Frequency of sequence in phage recovered from treated LLC tumors” value ([1]; treated LLC tumors) is on record?
The value was 41%.

What does the source list for “SVGSRV (Peptide that binds to LLC and/or GL261 tumors) [peptide isolated by in vivo panning of a phage library]”?
Tumor models within which the phage-encoded peptide bound [2]: bound within lung carcinoma and glioma; Phage Recovered from LLC tumors [1, 8]: 1; Phage Recovered from LLC tumors (Frequency) ([1]; Experiment A, six rounds, 3 Gy): (4%); Phage Recovered from GL261 tumors [3]: 3; Phage Recovered from GL261 tumors (Frequency) [3]: (12%)

With “NSXR [N-terminal NSXR, conserved N-terminal motif, N encoded by the vector]” as the molecule, how does the “Frequency of Recovery of conserved sequence” value [4] read?
Its value is 39%.

What does the source list for “SRKQGGTEV (Peptide that binds to LLC and/or GL261 tumors) [peptide isolated by in vivo panning of a phage library]”?
Phage Recovered from LLC tumors (Frequency) ([1]; Experiment B): (7%); Phage Recovered from LLC tumors [1, 9]: 1

For “GSXV [conserved motif within peptides identified by in vivo panning]”, which “Frequency of Recovery of conserved sequence” value [4] is on record?
The value was 80%.

Which “Tumor models within which the phage-encoded peptide bound” value [2] does the source give for “SVRGSGSGV (Peptide that binds to LLC and/or GL261 tumors) [peptide isolated by in vivo panning of a phage library]” here?
Its value is “bound within glioma and melanoma”.

What about the “Phage Recovered from LLC tumors” value [1, 8] of the same molecule?
The value was 7.

What about the “Phage Recovered from LLC tumors (Frequency)” value ([1]; Experiment A, six rounds, 3 Gy) of the same molecule?
Its value is “(28%)”.

What about the “Phage Recovered from GL261 tumors” value [3] of the same molecule?
Its value is 0.

And the “Phage Recovered from GL261 tumors (Frequency)” value [3]?
The value was “(0%)”.

Which “Apoptosis within tumor vascular endothelium” value [5] does the source give for Cc1[nH]c(/C=C2\C(=O)Nc3ccccc32)c(C)c1CCC(=O)O [SU6668] here?
Its value is “induced apoptosis within tumor vascular endothelium”.

Which “Frequency of Recovery of conserved sequence” value [4] does the source give for “GSRV (conserved subsequence) [conserved motif within peptides identified by in vivo panning]” here?
Its value is 6%.

What does the source list for “RGDGSSV (also: biotin, site not given here) [tested as biotinylated peptide]”?
Frequency of Recovery of conserved sequence [4]: 28%; Peptide binding in irradiated (responding) tumor ([6]; biotinylated peptide by tail vein immediately prior to irradiation, right tumor irradiated): accumulation throughout the lumen of responding tumors; Peptide binding in untreated control tumor ([6]; biotinylated peptide by tail vein, left tumor untreated internal control): near absence of binding

With “SXRGXGS [conserved motif within peptides identified by in vivo panning]” as the molecule, how does the “Frequency of Recovery of conserved sequence” value [4] read?
Its value is 28%.

For “NSV (conserved sequence) [N-terminal NSV, conserved N-terminal motif, N encoded by the vector]”, which “Frequency of Recovery of conserved sequence” value [4] is on record?
The value was 22%.

With “SVVRDGSEV (Peptide that binds to LLC and/or GL261 tumors) [peptide isolated by in vivo panning of a phage library]” as the molecule, how does the “Phage Recovered from LLC tumors (Frequency)” value ([1]; Experiment B) read?
Its value is “(21%)”.

And the “Phage Recovered from LLC tumors” value [1, 9]?
The value was 3.

With Cc1cc(C)c(/C=C2\C(=O)Nc3ccccc32)[nH]1 [SU5416] as the molecule, how does the “Apoptosis within tumor vascular endothelium” value [5] read?
Its value is “induced apoptosis within tumor vascular endothelium”.

What does the source list for “SGRKVGSGSSV (Peptide that binds to LLC and/or GL261 tumors) [peptide isolated by in vivo panning of a phage library]”?
Phage Recovered from LLC tumors (Frequency) ([1]; Experiment B): (50%); Phage Recovered from LLC tumors [1, 9]: 7

With “NXVG [N-terminal NXVG, conserved N-terminal motif, N encoded by the vector]” as the molecule, how does the “Frequency of Recovery of conserved sequence” value [4] read?
The value was 34%.

Which results are given for “GSSV (conserved subsequence) [conserved motif within peptides identified by in vivo panning]”?
Phage recovered from irradiated tumors ([4]; phage with peptide insert comprising the subsequence, no phage with wild type): 22-40 of 10^6 injected phage; Frequency of Recovery of conserved sequence [4]: 58%

For “SKEK (Peptide that binds to LLC and/or GL261 tumors) [peptide isolated by in vivo panning of a phage library]”, which “Phage Recovered from LLC tumors (Frequency)” value ([1]; Experiment B) is on record?
Its value is “(7%)”.

And the “Phage Recovered from LLC tumors” value [1, 9]?
The value was 1.

Which results are given for “Bibapcitide [^99mTc-labeled bibapcitide]”?
Tumor binding ([7]; administered immediately prior to radiation, 10 Gy or more): 4 of 4; Localization to tumor ([7]; administered within one hour following radiation): failed to show localization; Specificity of binding ([7]; clinical study, general finding): non-specific binding; Binding to responding tumors in dose de-escalation study ([7]; radiation dose reduced to 5 Gy): not sufficient; Binding in second neoplasms not treated with radiation ([7]; two patients, non-responding tumors): not observed

— patent publication US20100135905A1, “ASSESSMENT OF CANCER SUSCEPTIBILITY TO MOLECULAR TARGETED THERAPY BY USE OF RECOMBINANT PEPTIDES” (priority 2004, published 2010)
